Results on eleven compounds are retold here after PubChem BioAssay (NCI).

Among the test systems are M14 melanoma; SK-OV-3 ovarian; SK-MEL-2 melanoma; SK-MEL-5 melanoma; SN12C renal; NCI/ADR-RES ovarian; CAKI-1 renal; T-47D breast; 786-0 renal; MALME-3M melanoma.
Common to all, as to test: inhibition of tumour cell growth, NCI panel, 48 h

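The compound was tested at five concentrations on cells cultured in 96-well plates, with a 48-hour exposure period. The concentration for 50% growth inhibition is given as GI50. TGI denotes the concentration required for complete inhibition of growth.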 Some results are limits rather than exact numbers.

In the case of `COc1ccc(Cn2c(N)c(S(=O)(=O)c3ccc(Cl)cc3)c3nc(C#N)c(C#N)nc32)cc1`, the GI50 in the experiment with M14 melanoma is 24.8 µM; in the experiment with SK-OV-3 ovarian, 10.8 µM; in the experiment with SK-MEL-2 melanoma, 29.8 µM; in the experiment on SK-MEL-5 melanoma, 49.4 µM; in the experiment with SN12C renal, 1.45 µM; in the experiment on NCI/ADR-RES ovarian it was 1.15 µM. Also, the GI50 with CAKI-1 renal was 21.9 µM; in the experiment on T-47D breast it was over 50 µM; in the experiment with 786-0 renal it was 3.33 µM. The TGI with M14 melanoma is over 50 µM; in the experiment on SK-OV-3 ovarian, 49.4 µM; with SK-MEL-2 melanoma it was over 50 µM; in the experiment on SK-MEL-5 melanoma, over 50 µM; in the experiment on SN12C renal, 17.9 µM; in the experiment on NCI/ADR-RES ovarian, 6 µM. For the same compound, the TGI in the experiment on CAKI-1 renal, in the experiment with T-47D breast and in the experiment with 786-0 renal was over 50 µM throughout.
In the case of `COc1cccc2c1C(=O)c1c(O)c3c(c(O)c1C2=O)C[C@@](O)(/C(C)=N/NC(=O)c1ccc(Cl)cc1)C[C@@H]3OC1CC(N)C(O)C(C)O1` (stereo not given in full), the GI50 in the experiment with SK-OV-3 ovarian is 0.481 µM; in the experiment on SN12C renal it was 0.156 µM; with NCI/ADR-RES ovarian, 4.6 µM; in the experiment on CAKI-1 renal, 0.708 µM; with T-47D breast it was 0.163 µM; in the experiment with 786-0 renal, 0.249 µM. Moreover, the TGI in the experiment on SK-OV-3 ovarian is 13.8 µM; with SN12C renal, 3 µM; in the experiment with NCI/ADR-RES ovarian it was 44.3 µM; with CAKI-1 renal it was 5.98 µM; in the experiment on T-47D breast, 1.79 µM; in the experiment on 786-0 renal it was 1.69 µM.
Turning to `[N-]=[N+]=N/C1=C/CCCCC(=O)C1`, the TGI in the experiment on M14 melanoma, in the experiment on SK-OV-3 ovarian, with SK-MEL-2 melanoma, in the experiment with SK-MEL-5 melanoma, with MALME-3M melanoma and in the experiment on SN12C renal was over 100 µM in each case. Also, the TGI in the experiment with CAKI-1 renal and in the experiment on 786-0 renal was over 100 µM in each case.
Consider `C=CCN1CCC23c4c5ccc(O)c4OC2C(=NN=C2CCC4(O)C6Cc7ccc(O)c8c7C4(CCN6CC=C)C2O8)CCC3(O)C1C5` (stereo not given), for which the TGI in the experiment on M14 melanoma is 32 µM; in the experiment on SK-OV-3 ovarian, over 100 µM; in the experiment on SK-MEL-2 melanoma it was 33.8 µM; in the experiment on SK-MEL-5 melanoma, 36.3 µM; in the experiment with MALME-3M melanoma, 33.4 µM; in the experiment with SN12C renal, 47.8 µM. Moreover, the TGI was over 100 µM in the experiment with CAKI-1 renal and 35.3 µM in the experiment with 786-0 renal.
For `Cc1ccc(S(=O)OCc2c(C)c(C)c(COS(=O)c3ccc(C)cc3)c(C)c2C)cc1` (stereo not given), the TGI in the experiment with M14 melanoma, with SK-OV-3 ovarian, in the experiment with SK-MEL-5 melanoma, with MALME-3M melanoma, with SN12C renal and with CAKI-1 renal was over 100 µM each time. In the experiment on 786-0 renal, this compound yielded a TGI of over 100 µM.
For `CCN(CC)CCSc1c2ccccc2nc2c(OC)ccc(OC)c12`, the TGI with M14 melanoma is 15.4 µM; with SK-OV-3 ovarian, 69.2 µM; in the experiment with SK-MEL-2 melanoma, over 23 µM; with SK-MEL-5 melanoma, 16.5 µM; in the experiment on MALME-3M melanoma, over 60.9 µM; with SN12C renal, over 39.3 µM. Moreover, the TGI in the experiment with CAKI-1 renal is over 22.2 µM; in the experiment on 786-0 renal it was over 20.6 µM.
With `O=C(Nc1ccc(Cl)c(C(F)(F)F)c1)c1ccc(NC2=C(Cl)C(=O)N(Cc3ccccc3)C2=O)cc1`, the GI50 with M14 melanoma was 19.6 µM; in the experiment with SK-OV-3 ovarian, 26.9 µM; in the experiment with SK-MEL-2 melanoma, 13.8 µM; in the experiment with SN12C renal, 17.9 µM; with CAKI-1 renal, 19.4 µM; in the experiment with T-47D breast, 6.11 µM. Moreover, the GI50 with 786-0 renal is 16.2 µM. For the same compound, the TGI was 41.6 µM in the experiment with M14 melanoma; 60.5 µM with SK-OV-3 ovarian; 38.7 µM with SK-MEL-2 melanoma; 31.8 µM in the experiment with SN12C renal; 38.6 µM in the experiment with CAKI-1 renal; over 100 µM with T-47D breast. Moreover, the TGI with 786-0 renal was 32.9 µM.
Take `Cn1cc(-c2csc(-c3c[nH]c4ccc(Br)cc34)n2)c2cnccc21`: the GI50 in the experiment with M14 melanoma was 1.87 µM; with SK-MEL-2 melanoma, 2.58 µM; in the experiment with SK-MEL-5 melanoma, 1.88 µM; in the experiment with MALME-3M melanoma it was 2.23 µM; in the experiment with SN12C renal, 1.75 µM; in the experiment on 786-0 renal, 1.63 µM. The TGI with M14 melanoma worked out at 3.61 µM; with SK-MEL-2 melanoma it was 6.35 µM; in the experiment on SK-MEL-5 melanoma, 4.25 µM; with MALME-3M melanoma, 3.96 µM; in the experiment with SN12C renal it was 3.35 µM; in the experiment with 786-0 renal, 3.4 µM.
In the case of `C=COC(=O)N[C@H]1CCc2cc(OC)c(OC)c(OC)c2-c2ccc(SC)c(=O)cc21`, the TGI is 14.7 µM with M14 melanoma; 3.5 µM with SK-OV-3 ovarian; 1.73 µM in the experiment with SK-MEL-2 melanoma; 0.097 µM in the experiment on SK-MEL-5 melanoma; over 100 µM with MALME-3M melanoma; 54.7 µM with SN12C renal. The values for the TGI with CAKI-1 renal, with T-47D breast and in the experiment with 786-0 renal were 45.9 µM, over 100 µM and 50.8 µM, respectively.
As for `Cc1ccc2c(C3C(C#N)=C(N)Oc4cc5ccccc5cc43)cc(=O)oc2c1` (stereo not given), the GI50 in the experiment with M14 melanoma is 0.697 µM; in the experiment with SK-OV-3 ovarian, 2.04 µM; with SK-MEL-2 melanoma, 11.7 µM; with SK-MEL-5 melanoma, 0.856 µM; in the experiment with SN12C renal, 5.27 µM; in the experiment on NCI/ADR-RES ovarian it was 0.833 µM. Besides, the figures for the GI50 with T-47D breast and in the experiment with 786-0 renal were 1.49 µM and 1.83 µM, respectively. The TGI with M14 melanoma was 21.3 µM; in the experiment on SK-OV-3 ovarian, over 100 µM; in the experiment on SK-MEL-2 melanoma, over 100 µM; in the experiment on SK-MEL-5 melanoma, 19.9 µM; in the experiment on SN12C renal it was over 100 µM; in the experiment with NCI/ADR-RES ovarian it was over 100 µM. Besides, the results for the TGI in the experiment on T-47D breast and in the experiment on 786-0 renal were 64 µM and over 100 µM, respectively.
For `O=[P@@]1(c2ccccc2)O[C@H](COCc2ccccc2)[C@@H](OCc2ccccc2)[C@H](OCc2ccccc2)[C@H]1NCc1ccccc1`, the GI50 was 3.21 µM in the experiment on M14 melanoma; 4.48 µM with SK-OV-3 ovarian; 3.73 µM in the experiment on SK-MEL-2 melanoma; 2.59 µM with SK-MEL-5 melanoma; 1.83 µM in the experiment with SN12C renal; 3.16 µM with NCI/ADR-RES ovarian. Further, the figures for the GI50 in the experiment on CAKI-1 renal, with T-47D breast and in the experiment with 786-0 renal were 2.15 µM, 2.85 µM and 3.03 µM, respectively. For the same compound, the TGI is over 100 µM in the experiment with M14 melanoma; over 100 µM with SK-OV-3 ovarian; over 100 µM in the experiment on SK-MEL-2 melanoma; 6.79 µM in the experiment on SK-MEL-5 melanoma; 3.6 µM with SN12C renal; over 100 µM with NCI/ADR-RES ovarian. The TGI in the experiment on CAKI-1 renal was 8.66 µM; with T-47D breast, 7.92 µM; in the experiment on 786-0 renal it was over 100 µM.
